The supplement of paper PMC10307832

Key:
Experiment in all cases: relative viability (nuclei count vs DMSO), 5 days (fraction); higher = more cells survive
[1] = compound: COc1cc2nc(N3CCCN(C)CC3)nc(NC3CCN(Cc4ccccc4)CC3)c2cc1OC + CC(=O)Nc1cccc(-n2c(=O)n(C3CC3)c(=O)c3c(Nc4ccc(I)cc4F)n(C)c(=O)c(C)c32)c1 [Trametinib] (partner 0.02 µM)
Method in brief: (§1)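 Lung cancer cell lines were pin-tool dosed in 1536-well plates on the day after seeding, with either a lone drug or a fixed anchor-drug dose plus five library-drug doses (not always all listed) in √10 steps. Nuclei were counted on 4× images after 5 days. Relative viability is the ratio of treated-well to vehicle-well nuclei counts, with each value a median of duplicate plates.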

AZD6482 + Olaparib = compound: Cc1cc([C@@H](C)Nc2ccccc2C(=O)O)c2nc(N3CCOCC3)cc(=O)n2c1 [AZD6482] + O=C(c1cc(Cc2n[nH]c(=O)c3ccccc23)ccc1F)N1CCN(C(=O)C2CC2)CC1 [Olaparib] (partner 8 µM)
Method in brief: as §1

[2] = compound: COc1cc2nc(N3CCCN(C)CC3)nc(NC3CCN(Cc4ccccc4)CC3)c2cc1OC + CCNC(=O)c1noc(-c2cc(C(C)C)c(O)cc2O)c1-c1ccc(CN2CCOCC2)cc1 [Luminespib] (partner 0.01 µM)
Method in brief: as §1

AZD6482 + Pictilisib = compound: Cc1cc([C@@H](C)Nc2ccccc2C(=O)O)c2nc(N3CCOCC3)cc(=O)n2c1 [AZD6482] + CS(=O)(=O)N1CCN(Cc2cc3nc(-c4cccc5[nH]ncc45)nc(N4CCOCC4)c3s2)CC1 [Pictilisib] (partner 1 µM)
Method in brief: as §1

Cell Line	relative viability ([1]; first compound 0.2 µM)	relative viability ([1]; first compound 0.6325 µM)	relative viability ([1]; first compound 2 µM)	relative viability ([1]; first compound 6.325 µM)	relative viability (AZD6482 + Olaparib; first compound 0.08 µM)	relative viability (AZD6482 + Olaparib; first compound 0.253 µM)	relative viability (AZD6482 + Olaparib; first compound 0.8 µM)	relative viability (AZD6482 + Olaparib; first compound 2.53 µM)	relative viability (AZD6482 + Olaparib; first compound 8 µM)	relative viability ([2]; first compound 0.2 µM)	relative viability ([2]; first compound 0.6325 µM)	relative viability ([2]; first compound 2 µM)	relative viability ([2]; first compound 6.325 µM)	relative viability (AZD6482 + Pictilisib; first compound 0.08 µM)	relative viability (AZD6482 + Pictilisib; first compound 0.253 µM)	relative viability (AZD6482 + Pictilisib; first compound 0.8 µM)	relative viability (AZD6482 + Pictilisib; first compound 2.53 µM)	relative viability (AZD6482 + Pictilisib; first compound 8 µM)
NCI-H1915	0.309	0.295	0.309	0.277	0.266	0.268	0.276	0.236	0.258	0.762	0.731	0.794	0.893	0.886	0.916	1.03	0.79	0.909
NCI-H1944	0.437	0.423	0.379	0.414	0.399	0.443	0.428	0.337	0.388	0.829	0.668	0.863	0.661	0.314	0.342	0.366	0.246	0.33
NCI-H1975	0.369	0.41	0.346	0.322	0.661	0.832	0.964	0.648	0.624	0.159	0.212	0.21	0.264	0.249	0.275	0.307	0.274	0.258
NCI-H1993	0.497	0.485	0.414	0.589	0.881	0.997	0.95	0.563	0.665	0.818	0.719	0.923	0.867	0.907	0.779	–	–	0.769
NCI-H2009	0.277	0.305	0.323	0.289	0.597	0.683	0.703	0.452	0.619	1.05	1.08	1.06	0.937	0.71	0.765	0.871	0.516	0.743
NCI-H2023	0.598	0.577	0.501	0.116	0.496	0.457	0.43	0.353	0.379	0.818	0.646	0.637	0.134	0.194	0.227	0.233	0.132	0.24
NCI-H2085	0.504	0.504	0.612	0.525	0.632	0.358	0.45	0.36	0.303	0.458	0.393	0.373	0.404	0.428	0.359	0.404	0.33	0.407
NCI-H2087	0.244	0.215	0.144	0.206	0.578	0.587	0.523	0.345	0.519	0.188	0.162	0.364	0.136	0.758	0.723	0.91	0.611	0.889
NCI-H2126	0.532	0.572	0.513	0.508	0.877	0.904	0.867	0.615	0.57	0.877	0.864	0.754	0.815	0.446	0.513	0.494	0.368	0.483
NCI-H2170	0.989	0.856	0.959	0.948	0.536	0.608	0.511	0.542	0.489	0.887	0.648	0.88	0.69	0.285	0.261	0.307	0.258	0.317
NCI-H2228	0.561	0.565	0.403	0.395	0.494	0.546	0.569	0.466	0.569	0.162	0.12	0.138	0.101	0.368	0.691	0.266	0.387	0.387
NCI-H2347	0.275	0.299	0.271	0.377	0.449	0.536	0.496	0.432	0.432	0.57	0.521	0.446	0.524	–	0.75	0.559	0.393	0.421
NCI-H2405	0.652	0.604	0.676	0.591	0.599	0.861	0.929	0.541	0.677	0.778	0.673	0.75	0.786	0.31	–	0.559	0.381	0.386
NCI-H3122	0.239	0.199	0.197	0.208	0.608	0.729	0.657	0.585	0.616	0.0795	0.0919	0.0888	0.0791	0.644	0.572	0.642	0.407	0.636
PC-3 [JPC-3]	0.641	0.761	0.745	0.507	1.02	1.11	1.08	0.801	1.15	0.753	0.675	0.745	0.585	0.601	0.743	0.739	0.652	0.681
PC-14	0.707	0.648	0.806	0.0693	0.247	0.337	0.405	0.308	0.36	0.123	0.242	0.162	0.122	0.575	0.632	0.591	0.376	0.771
RERF-LC-KJ	0.829	0.862	0.928	0.803	0.787	0.963	0.886	0.963	0.667	1.15	1.13	1.33	0.903	0.492	0.488	0.502	0.535	0.7
SK-LU-1	0.554	0.541	0.516	0.459	–	0.452	0.474	0.405	0.359	0.184	0.213	0.197	0.178	–	0.535	0.622	0.461	0.448
